# Test results from ChEMBL document CHEMBL1136445, “Inhibitory effects on mitochondrial complex I of semisynthetic mono-tetrahydrofuran acetogenin derivatives” (Bioorg Med Chem Lett, 2003).
# What was measured:
# [1] = biological target: Mitochondrial complex I; NADH oxidoreductase (Bos taurus) (UniProt P25708+P52505); experiment: Inhibitory potency against NADH oxidase with respect to compound 2c; assay type: protein-complex assay
# [2] = biological target: Mitochondrial complex I; NADH oxidoreductase (Bos taurus, UniProt P25708+P52505); experiment: Inhibitory activity against NADH oxidase in beef heart mitochondrial complex I.; assay type: protein-complex assay
# Chain of Mitochondrial complex I; NADH oxidoreductase (P25708 21-464 limits assumed, other chains not shown): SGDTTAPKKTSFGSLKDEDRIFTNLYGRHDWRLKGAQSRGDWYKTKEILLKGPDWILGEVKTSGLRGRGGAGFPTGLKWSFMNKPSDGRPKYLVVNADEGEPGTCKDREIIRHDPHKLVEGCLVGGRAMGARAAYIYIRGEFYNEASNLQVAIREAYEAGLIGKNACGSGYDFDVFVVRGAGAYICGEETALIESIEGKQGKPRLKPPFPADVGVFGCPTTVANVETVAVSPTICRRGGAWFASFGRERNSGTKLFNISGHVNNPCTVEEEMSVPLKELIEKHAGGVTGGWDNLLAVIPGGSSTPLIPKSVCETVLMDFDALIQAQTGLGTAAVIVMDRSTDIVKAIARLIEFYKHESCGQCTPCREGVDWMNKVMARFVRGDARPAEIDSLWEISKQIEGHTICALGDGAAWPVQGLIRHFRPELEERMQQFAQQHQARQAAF
# [3] = Inhibitory activity against NADH/DH oxidoreductase in beef heart mitochondrial complex I.; design: species or system Bos taurus
# [4] = organism: Bos taurus; experiment: Inhibitory potency against NADH/DH oxidoreductase with respect to rotenone
smiles,measurement,setting,value
C=C(C)[C@H]1Cc2c(ccc3c2O[C@@H]2COc4cc(OC)c(OC)cc4[C@@H]2C3=O)O1 [ROTENONE],Relative potency,[1],7.2
same,IC50,[2],5.1 nM
same,IC50,[3],28.8 nM
same,Relative potency,[4],1
CCCCCCCCCCCC[C@H](O)[C@@H]1CC[C@@H]([C@@H](O)CCCCC(=O)CCCCC[C@@H]2CC(CC(C)=O)C(=O)O2)O1 (some centres not stated),Relative potency,[1],1
same,IC50,[2],0.7 nM
same,IC50,[3],1.1 nM
same,Relative potency,[4],0.13
CCCCCCCCCCCC[C@H](O)[C@@H]1CC[C@@H]([C@@H](O)CCCC/C(CCCCC[C@@H](O)CC2=C[C@H](C)OC2=O)=N\O)O1,Relative potency,[1],3.8
same,IC50,[2],2.7 nM
same,IC50,[3],10.3 nM
same,Relative potency,[4],0.52
CCCCCCCCCCCC[C@H](O)[C@@H]1CC[C@@H]([C@@H](O)CCCCC(=O)CCCCC[C@@H](O)CC2=C[C@H](C)OC2=O)O1,Relative potency,[1],1.1
same,IC50,[2],0.8 nM
same,IC50,[3],3.7 nM
same,Relative potency,[4],0.15
CCCCCCCCCCCC[C@H](O)[C@@H]1CC[C@@H]([C@@H](O)CCCC[C@@H](O)CCCCC[C@@H](O)CC2C[C@H](C)OC2=O)O1 (some centres not stated),Relative potency,[1],5.1
same,IC50,[2],3.6 nM
same,IC50,[3],19.9 nM
same,Relative potency,[4],0.7
CCCCCCCCCCCC[C@H](O)[C@@H]1CC[C@@H]([C@@H](O)CCCC[C@@H](O)CCCCC[C@@H]2CC(C/C(C)=N/O)C(=O)O2)O1 (some centres not stated),Relative potency,[1],2.7
same,IC50,[2],1.9 nM
same,IC50,[3],8.7 nM
same,Relative potency,[4],0.37
CCCCCCCCCCCC[C@H](O)[C@@H]1CC[C@@H]([C@@H](O)CCCCC(CCCCC[C@@H](O)CC2=C[C@H](C)OC2=O)NCCc2ccc(OC)c(OCc3ccccc3)c2)O1 (some centres not stated),IC50,[2],> 150 nM
same,IC50,[3],> 1200 nM
CCCCCCCCCCCC[C@H](O)[C@@H]1CC[C@@H]([C@@H](O)CCCC[C@@H](O)CCCCC[C@@H]2CC(CC(C)O)C(=O)O2)O1 (some centres not stated),Relative potency,[1],8.2
same,IC50,[2],5.8 nM
same,IC50,[3],51 nM
same,Relative potency,[4],1.1
CCCCCCCCCCCC[C@H](O)[C@@H]1CC[C@@H]([C@@H](O)CCCC[C@@H](O)CCCCC[C@@H](O)CC2(O)C(=O)O[C@@H](C)C2O)O1 (some centres not stated),Relative potency,[1],31.1
same,IC50,[2],21.8 nM
same,IC50,[3],55.2 nM
same,Relative potency,[4],4.27
CCCCCCCCCCCC[C@H](O)[C@@H]1CC[C@@H]([C@@H](O)CCCC[C@@H](O)CCCCC[C@@H](O)CC2=C[C@H](C)OC2=O)O1,Relative potency,[1],3.2
same,IC50,[2],2.3 nM
same,IC50,[3],26.1 nM
same,Relative potency,[4],0.62
CCCCCCCCCCCC[C@H](O)[C@@H]1CC[C@@H]([C@@H](O)CCCC[C@@H](O)CCCCC[C@@H]2CC(CC(C)=O)C(=O)O2)O1 (some centres not stated),Relative potency,[1],4.7
same,IC50,[2],3.3 nM
same,IC50,[3],14.6 nM
same,Relative potency,[4],0.64
